Reference: US20250018049A1, “COMPOUNDS FOR DEGRADING CYCLIN-DEPENDENT KINASE 2 VIA UBIQUITIN PROTEOSOME PATHWAY” (NIKANG THERAPEUTICS, INC., priority 2020, published 2025)

Key:
Type in all cases: cell-based
[1] = target: T1, CDK2 (Homo sapiens, UniProt P24941); test: Phospho-Rb HTRF measurement in OVCAR3 cells (inhibition of CDK2); parameters: High-Throughput Measurement of Cellular Endogenous CDK2; endogenous in cells; host or cells: OVCAR3; conditions: pRB(S807/811) assay, 24 h compound treatment
Description: Phosphorylation of RB protein at S780 and S807/811 were measured using HTRF phospho-RB cellular kits (Cat #64RBS780PEG and 64RBS807PEG) from Cisbio.
On Day 1, OVCAR3 or KYSE520 cells were seeded into 96-well tissue-culture treated plates at 20,000 cells/well in 200 μL and incubated overnight at 37° C. in CO2 atmosphere. On Day 2, the cells were treated with test compounds at concentrations from 0.3 to 10,000 nM using HP D300 digital dispenser. Twenty-four hours after compound treatment, cell culture media was removed by flicking the plate and tapping the plate against clean paper towel. Immediately 30 μL 1× lysis buffer was supplemented from the kit and the plate was incubated at room temperature on shaker for 30 min. After homogenization by pipetting up and down, 8 μL cell lysate from 96-well cell culture plate was transferred to 384-well small volume white detection plate. 2 μL premixed detection solution was added and the plate was covered with sealer. To prepare the detection solution, d2 conjugated-phospho-RB antibody and Eu-cryptate conjugated phosphor-RB antibody were diluted into detection buffer following manufacturer's instruction. Detection plates were incubated for 4 h at room temperature and read on ClarioStar (BMG Labtech) in TR-FRET mode (665 nM and 620 nM). The TR-FRET ratio (665 nM/620 nM) was plotted against the compound concentration and normalized to DMSO controls. Half maximal inhibition concentration (IC50) values are calculated with a four-parameter logistic fit using GraphPad Prism (version 8; La Jolla, CA).

[2] = target: T1, CDK2; test: CDK2 HTRF assay (cellular endogenous CDK2 level); parameters: High-Throughput Measurement of Cellular Endogenous CDK2; endogenous in cells; host or cells: OVCAR3; conditions: OVCAR-3; OVCAR3 cells, 24 hours, 0.3 to 10,000 nM; read-out: max degradation of CDK2
Description: Effects of compounds on cellular CDK2 level can be monitored by a high-throughput HTRF assay or traditional Western Blot assay.
To determine half maximal degradation concentration (DC50) values of compounds, cellular CDK2 level was measured in 96-well format using HTRF total CDK2 cellular kit (Cat #64CDK2TPEG) from Cisbio.
On Day 1, OVCAR3 cells were seeded into 96-well tissue-culture treated plates at 20,000 cells/well in 200 μL and incubated overnight at 37° C. in CO2 atmosphere. On Day 2 cells were treated with compounds at concentration ranging from 0.3 to 10,000 nM using HP D300 digital dispenser. 24 hours after compound treatment, cell culture media was removed by flicking the plate and tapping the plate against clean paper towel. Immediately 30 μL 1× lysis buffer was supplemented from the kit and the plate was incubated at room temperature on shaker for 30 min. After homogenization by pipetting up and down, 8 μL cell lysate from 96-well cell culture plate was transferred to 384-well small volume white detection plate. 2 μL premixed detection solution was added and the plate was covered with sealer. To prepare the detection solution, d2 conjugated-CDK2 antibody and Eu-cryptate conjugated CDK2 antibody were diluted into detection buffer following manufacturer's instruction. Detection plates were incubated overnight at room temperature and read on ClarioStar (BMG Labtech) in TR-FRET mode (665 nM and 620 nM). The TR-FRET ratio (665 nM/620 nM) was plotted against the compound concentration and normalized to DMSO controls. Half maximal degradation concentration (DC50) values were calculated with a four-parameter logistic fit using GraphPad Prism (version 8; La Jolla, CA). FIG. 1 provides a dose-response curve of Compound 1 in Compound Table I in cellular CDK2 HTRF assay. IC50 in FIG. 1 is the same as DC50. Compounds 1, 13, 16, 22, 23, 28, 34, 35, 36, 37, 38, 39, 42, 48, 50, 51, 53, 54, 55, 56, 57, 58, 59, 60, 61, 62, 63, 65, 66, 68, 69, 70 were tested and max degradation of CDK2 observed was from about 35% to about 90%.

[3] = target: T1, CDK2; test: NanoBRET CDK2 engagement assay; parameters: expressed in transfected cells; conditions: OVCAR3 cells with stable CDK2-Luciferase vector, 24 hours treatment
Description: OVCAR3 cells with stable transfection of CDK2-Luciferase vector were seeded into 96-well plate at a density of 20,000 cells per well, 50 μL Opti-MEM medium supplemented with 1% FBS. Following morning, cells were treated with compounds of the disclosure, with starting concentration at 3 μM and ½ log dilution down to 0.3 nM for 24 hours at 37° C. DMSO treatment serves as control. Compound engagement was then measured using NanoBRE™ Kinase Kit from Promega (Part Number: CS1810C122, NanoBRET™ TE Kinase Kit #10, 1K) following manufacturer's instruction. For 24 hours treatment, tracer was added only for the last 2 hours. Briefly, 2.5 μL of complete 20× NanoBRET Tracer was added to the cells in suspension. Immediately prior to BRET measurements, prepare 3× Complete NanoBRET® Nano-Glo® Substrate in Opti-MEM without serum and phenol red. Without any delay, 25 μL per well of 3× Complete NanoBRET™ Nano-Glo® Substrate for a 96-well plate was added and mixed well. Signal was then read on a CLARIOstar® plate reader (measure donor emission (e.g., 450 nm) and acceptor emission (e.g., 610 nm or 630 nm) using a NanoBRET™-compatible luminometer. Target engagement was calculated with DMSO treatment as 100% signal, and IC50 was calculated by GraphPad Prism 9.

| SMILES | IC50 [1] | Dmax [2] | IC50 [3] |
| --- | --- | --- | --- |
| CN(CCCN1CCC(c2cccc3c2n(C)c(=O)n3C2CCC(=O)NC2=O)CC1)S(=O)(=O)N1CCC(Nc2ncc3ccc(=O)n(C4CCCC4)c3n2)CC1 (stereo not drawn) [Compound 23, 4-((8-cyclopentyl-7-oxo-7,8-dihydropyrido[2,3-d]pyrimidin-2-yl)amino)-N-(3-(4-(1-(2,6-dioxo-piperidin-3-yl)-3-methyl-2-oxo-2,3-dihydro-1H-benzo[d]imidazol-4-yl)piperidin-1-yl)propyl)-N-methylpiperidine-1-sulfonamide] | 0.0136 µM | 35 to 90% | < 0.001 µM |
| O=C1CCC(N2Cc3cc(N4CC5(CN(Cc6cccc(S(=O)(=O)N7CCC(Nc8ncc9ccc(=O)n(C%10CCCC%10)c9n8)CC7)c6)C5)C4)ccc3C2=O)C(=O)N1 (stereo not drawn) [Compound 60, 3-(5-(6-(3-((4-((8-cyclopentyl-7-oxo-7,8-dihydro-pyrido[2,3-d]pyrimidin-2-yl)amino)piperidin-1-yl)sulfonyl)benzyl)-2,6-diazaspiro[3.3]heptan-2-yl)-1-oxoisoindolin-2-yl)piperidine-2,6-dione] | 0.03 µM | 35 to 90% | 0.0645 µM |
| Cn1c(=O)n(C2CCC(=O)NC2=O)c2cccc(C3CCN(C4CC5(C4)CN(S(=O)(=O)N4CCC(Nc6ncc7ccc(=O)n(C8CCCC8)c7n6)CC4)C5)CC3)c21 (stereo not drawn) [Compound 32, 3-(4-(1-(2-((4-((8-cyclopentyl-7-oxo-7,8-dihydro-pyrido[2,3-d]pyrimidin-2-yl)amino)piperidin-1-yl)sulfonyl)-2-azaspiro[3.3]heptan-6-yl)piperidin-4-yl)-3-methyl-2-oxo-2,3-dihydro-1H-benzo[d]imidazol-1-yl)piperidine-2,6-dione] | 0.317 µM | – | 0.059 µM |
| CO[C@H]1CN(S(=O)(=O)c2cccc(CN3CCN(c4cc5c(cc4F)C(=O)N(C4CCC(=O)NC4=O)C5=O)CC3)c2)CC[C@@H]1Nc1ncc2ccc(=O)n(C3CCCC3)c2n1 (stereo partly drawn) [Compound 64, 5-(4-(3-(((3S,4S)-4-((8-cyclopentyl-7-oxo-7,8-dihydropyrido[2,3-d]pyrimidin-2-yl)amino)-3-methoxypiperidin-1-yl)sulfonyl)benzyl)piperazin-1-yl)-2-(2,6-dioxopiperidin-3-yl)-6-fluoro-isoindoline-1,3-dione] | 7.94 µM | – | 3.04 µM |
| O=C1CCC(N2C(=O)c3cc(F)c(N4C5CCC4CN(Cc4cccc(S(=O)(=O)N6CCC(Nc7ncc8ccc(=O)n(C9CCCC9)c8n7)CC6)c4)C5)cc3C2=O)C(=O)N1 (stereo not drawn) [Compound 47, 5-(3-(3-((4-((8-cyclopentyl-7-oxo-7,8-dihydro-pyrido[2,3-d]pyrimidin-2-yl)amino)piperidin-1-yl)sulfonyl)benzyl)-3,8-diazabicyclo[3.2.1]octan-8-yl)-2-(2,6-dioxopiperidin-3-yl)-6-fluoro-isoindoline-1,3-dione] | 4.03 µM | – | 0.59 µM |

Other lines, results leading:

| IC50 [1] | Dmax [2] | IC50 [3] | SMILES |
| --- | --- | --- | --- |
| 2.67 µM | – | 3.04 µM | O=C(COc1cccc2c1C(=O)N(C1CCC(=O)NC1=O)C2=O)NCCOCCN1CCN(S(=O)(=O)N2CCC(Nc3ncc4ccc(=O)n(C5CCCC5)c4n3)CC2)CC1 (stereo not drawn) [compound 3, N-(2-(2-(4-((4-((8-cyclopentyl-7-oxo-7,8-dihydropyrido[2,3-d]pyrimidin-2-yl)amino)-piperidin-1-yl)sulfonyl)piperazin-1-yl)-ethoxy)ethyl)-2-((2-(2,6-dioxopiperidin-3-yl)-1,3-dioxoisoindolin-4-yl)oxy)acetamide] |
| 2.25 µM | – | 1.67 µM | O=C(COc1cccc2c1C(=O)N(C1CCC(=O)NC1=O)C2=O)NCCOCCOCCOCCOCCN1CCN(S(=O)(=O)N2CCC(Nc3ncc4ccc(=O)n(C5CCCC5)c4n3)CC2)CC1 (stereo not drawn) [compound 6, N-(14-(4-((4-((8-cyclopentyl-7-oxo-7,8-dihydro-pyrido[2,3-d]pyrimidin-2-yl)amino)-piperidin-1-yl)sulfonyl)piperazin-1-yl)-3,6,9,12-tetraoxatetradecyl)-2-((2-(2,6-dioxopiperidin-3-yl)-1,3-dioxoisoindolin-4-yl)oxy)acetamide] |
| 1.28 µM | – | 1.31 µM | O=C(COc1cccc2c1C(=O)N(C1CCC(=O)NC1=O)C2=O)NCCOCCOCCN1CCN(S(=O)(=O)N2CCC(Nc3ncc4ccc(=O)n(C5CCCC5)c4n3)CC2)CC1 (stereo not drawn) [compound 2, N-(2-(2-(2-(4-((4-((8-cyclopentyl-7-oxo-7,8-dihydropyrido[2,3-d]pyrimidin-2-yl)amino)-piperidin-1-yl)sulfonyl)piperazin-1-yl)-ethoxy)ethoxy)ethyl)-2-((2-(2,6-dioxo-piperidin-3-yl)-1,3-dioxoisoindolin-4-yl)-oxy)acetamide] |
| 5.86 µM | – | 4.11 µM | CN1C(=O)CCC(N2C(=O)c3cccc(OCC(=O)NCCOCCN4CCN(S(=O)(=O)N5CCC(Nc6ncc7ccc(=O)n(C8CCCC8)c7n6)CC5)CC4)c3C2=O)C1=O (stereo not drawn) [compound 5, N-(2-(2-(4-((4-((8-cyclopentyl-7-oxo-7,8-dihydropyrido[2,3-d]pyrimidin-2-yl)amino)-piperidin-1-yl)sulfonyl)piperazin-1-yl)-ethoxy)ethyl)-2-((2-(1-methyl-2,6-dioxo-piperidin-3-yl)-1,3-dioxoisoindolin-4-yl)oxy)acetamide] |
| 1.81 µM | – | 0.675 µM | O=C1CCC(N2C(=O)c3cccc(NCCOCCOCCNS(=O)(=O)N4CCC(Nc5ncc6ccc(=O)n(C7CCCC7)c6n5)CC4)c3C2=O)C(=O)N1 (stereo not drawn) [Compound 9, 4-((8-cyclopentyl-7-oxo-7,8-dihydropyrido[2,3-d]-pyrimidin-2-yl)amino)-N-(2-(2-(2-((2-(2,6-dioxopiperidin-3-yl)-1,3-dioxoisoindolin-4-yl)-amino)ethoxy)ethoxy)ethyl)piperidine-1-sulfonamide] |
| 0.7 µM | – | 0.188 µM | Cn1c(=O)n(C2CCC(=O)NC2=O)c2cccc(CCCOCCNS(=O)(=O)N3CCC(Nc4ncc5ccc(=O)n(C6CCCC6)c5n4)CC3)c21 (stereo not drawn) [Compound 18, 4-((8-cyclopentyl-7-oxo-7,8-dihydropyrido[2,3-d]pyrimidin-2-yl)amino)-N-(2-(3-(1-(2,6-dioxopiperidin-3-yl)-3-methyl-2-oxo-2,3-dihydro-1H-benzo[d]imidazol-4-yl)propoxy)-ethyl)piperidine-1-sulfonamide] |
